For assay [1], the target named is T1, Heat shock factor protein 1 (Mus musculus, UniProt P38532).
T1 sequence (P38532 whole entry): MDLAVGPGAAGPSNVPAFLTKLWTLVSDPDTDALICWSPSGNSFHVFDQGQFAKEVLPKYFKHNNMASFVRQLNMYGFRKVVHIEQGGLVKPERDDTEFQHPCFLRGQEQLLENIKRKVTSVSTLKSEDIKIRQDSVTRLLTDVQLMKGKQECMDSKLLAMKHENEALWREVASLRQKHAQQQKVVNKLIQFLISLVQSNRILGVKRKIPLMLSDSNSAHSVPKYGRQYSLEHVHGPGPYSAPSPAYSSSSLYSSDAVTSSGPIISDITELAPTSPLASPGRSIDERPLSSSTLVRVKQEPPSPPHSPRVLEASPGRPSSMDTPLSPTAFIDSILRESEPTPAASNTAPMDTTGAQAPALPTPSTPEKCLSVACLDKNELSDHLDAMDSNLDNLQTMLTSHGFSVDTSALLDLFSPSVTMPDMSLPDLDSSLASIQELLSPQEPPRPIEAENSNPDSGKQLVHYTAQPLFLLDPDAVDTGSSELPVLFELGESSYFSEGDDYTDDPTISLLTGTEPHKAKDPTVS
Description: decrease of HSF1-responsive luciferase luminescence – cell-based, NIH3T3, dose retest, confirmation (AID 2382).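 Also: NIH3T3 fibroblasts with HSF1-driven luciferase reporter stressed by proteasome inhibitor MG132; luminescence from HSF1-driven luciferase expression after 8 hours of MG132 stress.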 The format is functional.

The target of a further assay is T2, Streptokinase A (Streptococcus pyogenes serotype M1, UniProt P10520).
T2 sequence (P10520 whole entry): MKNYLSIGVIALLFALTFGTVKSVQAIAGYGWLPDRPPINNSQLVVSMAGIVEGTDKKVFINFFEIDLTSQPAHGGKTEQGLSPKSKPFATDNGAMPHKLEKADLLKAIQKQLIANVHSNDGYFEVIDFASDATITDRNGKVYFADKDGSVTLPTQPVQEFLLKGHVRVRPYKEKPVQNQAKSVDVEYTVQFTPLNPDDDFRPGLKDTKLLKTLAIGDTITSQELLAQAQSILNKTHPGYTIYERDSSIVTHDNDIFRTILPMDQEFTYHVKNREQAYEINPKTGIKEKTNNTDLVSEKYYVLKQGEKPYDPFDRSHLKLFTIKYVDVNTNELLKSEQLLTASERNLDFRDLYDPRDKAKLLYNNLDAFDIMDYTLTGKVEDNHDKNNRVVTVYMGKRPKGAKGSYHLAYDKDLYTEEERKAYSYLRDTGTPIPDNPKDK
Description: viability-normalized secreted streptokinase activity reduction – plasminogen activation absorbance, OD405, dose response (AID 1914).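 Also: secreted streptokinase activity via plasminogen activation per viability signal from cell pellet.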 It counts as functional, Streptococcus pyogenes M1 GAS.

Assay [2] has as its system Streptococcus sp. 'group A'. Description: Streptococcus pyogenes SK(-)GAS viability under kanamycin – luminescence, BacTiterGlo, confirmation, counter-screen for streptokinase expression inhibitor project, dose response (AID 1900). The format is functional, organism-based.
A short description of assay [3]: viability loss in Vero cells – cytotoxicity control for Vif-APOBEC3G degradation inhibitor project, dose response (AID 1117358). It counts as functional. Conditions: Vero.
The test system of another assay is Streptococcus. Description: GAS UMAA2166 growth inhibition – luminescence, BacTiterGlo, counter-screen for streptokinase expression inhibitor project, dose response (AID 1915).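 Also: potency for reduction of bacterial viability or growth.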 The format is functional, organism-based.
The next assay addresses Genome polyprotein (dengue virus type 2, UniProt P29990). Description: flavivirus cap methylation enzyme inhibition – biochemical, confirmation dose response, primary screen (AID 588689). It counts as functional.
For assay [4], the target named is Glutathione-S-transferase (Schistosoma japonicum, UniProt Q26513). Description: GST-antibody interaction or FRET quenching – biochemical, TR-FRET, artefact control for Vif-APOBEC3G degradation inhibitor project, dose response (AID 1117362). It counts as functional.
Assay [5] relates to BJ. Description: BJ-TERT fibroblast viability loss – cell-based, RAS-independent, luminescence, dose response (AID 1933). The format is functional. Conditions: Homo sapiens.
Assay [6] deals with T3, RNA-binding protein pos-1 (Caenorhabditis elegans, UniProt G5EF15).
T3 sequence (G5EF15 whole entry): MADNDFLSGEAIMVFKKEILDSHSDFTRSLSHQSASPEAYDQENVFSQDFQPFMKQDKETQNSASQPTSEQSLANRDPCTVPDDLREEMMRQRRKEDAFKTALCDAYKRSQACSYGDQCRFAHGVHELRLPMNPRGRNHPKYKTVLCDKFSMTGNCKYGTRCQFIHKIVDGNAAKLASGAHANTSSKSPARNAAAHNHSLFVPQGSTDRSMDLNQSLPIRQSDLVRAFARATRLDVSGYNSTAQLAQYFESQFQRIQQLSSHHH
Description: disruptors of C. elegans POS-1 RNA interaction – biochemical, fluorescence polarization, dose response (AID 1964).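 Also: purified POS-1 fused to maltose binding protein made in E. coli; potency of compounds blocking POS-1 binding to fluorescent RNA.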

Assay [7] can be described thus: DRD fibroblast viability loss – cell-based, non-viral oncogenic, luminescence, dose response (AID 1934). To be noted: Homo sapiens. The format is functional.
A short description of assay [8]: viability loss in THP-1 monocytes – THP-1 cells, cytotoxicity control for Vif-APOBEC3G degradation inhibitor project, dose response (AID 1117359). The format is functional. To be noted: THP-1.
The target of a further assay is T4, Protein RecA (Mycobacterium tuberculosis, UniProt P9WHJ3).
T4 sequence (P9WHJ3 whole entry): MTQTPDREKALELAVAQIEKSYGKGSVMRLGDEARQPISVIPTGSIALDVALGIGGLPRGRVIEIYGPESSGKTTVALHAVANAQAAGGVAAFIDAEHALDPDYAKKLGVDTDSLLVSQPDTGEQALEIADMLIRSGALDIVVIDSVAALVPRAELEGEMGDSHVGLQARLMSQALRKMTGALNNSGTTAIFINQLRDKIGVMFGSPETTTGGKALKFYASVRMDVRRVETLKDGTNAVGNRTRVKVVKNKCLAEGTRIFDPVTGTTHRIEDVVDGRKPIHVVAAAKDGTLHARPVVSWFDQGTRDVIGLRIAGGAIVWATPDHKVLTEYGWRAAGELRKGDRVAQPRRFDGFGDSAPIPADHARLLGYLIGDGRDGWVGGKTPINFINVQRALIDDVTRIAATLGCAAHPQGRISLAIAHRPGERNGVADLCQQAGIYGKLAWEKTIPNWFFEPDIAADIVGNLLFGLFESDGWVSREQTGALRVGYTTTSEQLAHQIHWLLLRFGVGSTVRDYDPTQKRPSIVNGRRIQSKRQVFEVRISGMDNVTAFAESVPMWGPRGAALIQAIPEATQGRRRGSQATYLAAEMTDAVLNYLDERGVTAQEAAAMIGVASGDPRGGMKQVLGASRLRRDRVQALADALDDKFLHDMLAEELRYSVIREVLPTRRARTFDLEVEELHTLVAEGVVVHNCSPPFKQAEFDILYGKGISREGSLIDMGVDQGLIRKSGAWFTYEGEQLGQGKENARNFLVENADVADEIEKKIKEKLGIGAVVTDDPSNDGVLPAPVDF
Description: Fluorescence Cell-Free Homogeneous Dose Retest to Identify Inhibitors of RecA-Intein Splicing Activity. [Related pubchem assays (depositor defined):AID2097, AID2223, AID489010, AID492950]. It counts as functional.

Assay [9] deals with T5, Zinc finger protein mex-5 (Caenorhabditis elegans, UniProt Q9XUB2).
T5 sequence (Q9XUB2 whole entry): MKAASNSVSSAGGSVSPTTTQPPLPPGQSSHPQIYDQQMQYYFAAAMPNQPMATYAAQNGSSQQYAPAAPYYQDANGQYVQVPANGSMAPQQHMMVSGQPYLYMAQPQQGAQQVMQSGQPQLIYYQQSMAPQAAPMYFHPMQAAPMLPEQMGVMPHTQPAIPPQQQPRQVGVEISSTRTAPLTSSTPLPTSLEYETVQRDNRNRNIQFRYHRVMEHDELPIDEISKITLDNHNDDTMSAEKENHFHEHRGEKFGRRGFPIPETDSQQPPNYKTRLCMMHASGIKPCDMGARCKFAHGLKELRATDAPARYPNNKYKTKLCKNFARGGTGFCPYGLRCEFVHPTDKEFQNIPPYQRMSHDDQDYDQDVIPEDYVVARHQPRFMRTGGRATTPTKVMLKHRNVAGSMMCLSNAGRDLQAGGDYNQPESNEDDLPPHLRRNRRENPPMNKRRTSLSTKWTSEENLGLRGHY
Description: potency of MEX-5 RNA-binding blockers – biochemical, C. elegans, fluorescence polarization, dose response (AID 1960).

For another assay, the system named is Vero. Description: viability of Vero cells under compound – cytotoxicity control for flavivirus capping enzyme inhibitors (AID 588742). The format is functional. Conditions: Chlorocebus sabaeus.
The target of the next assay is Protein Tat (Human immunodeficiency virus type 1 group M subtype B (isolate HXB2)(HIV-1), UniProt P04608). The format is functional.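 Also: tat binding to TAR RNA read out by fluorescence polarization.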
Assay [10] has as its system BJ. Description: cells. The format is functional, cell-based. Conditions: Homo sapiens.
Assay [11] relates to BJ. Description: BJ-TERT-LT-ST fibroblast viability loss – cell-based, RAS-independent, luminescence, dose response (AID 1935).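 Also: BJ fibroblasts immortalized with TERT plus LT and ST oncogenes.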 It counts as functional. To be noted: Homo sapiens.
In assay [12] the target is T6, Replicative DNA helicase DnaB (Mycobacterium tuberculosis, UniProt P9WMR3).
T6 sequence (P9WMR3 whole entry): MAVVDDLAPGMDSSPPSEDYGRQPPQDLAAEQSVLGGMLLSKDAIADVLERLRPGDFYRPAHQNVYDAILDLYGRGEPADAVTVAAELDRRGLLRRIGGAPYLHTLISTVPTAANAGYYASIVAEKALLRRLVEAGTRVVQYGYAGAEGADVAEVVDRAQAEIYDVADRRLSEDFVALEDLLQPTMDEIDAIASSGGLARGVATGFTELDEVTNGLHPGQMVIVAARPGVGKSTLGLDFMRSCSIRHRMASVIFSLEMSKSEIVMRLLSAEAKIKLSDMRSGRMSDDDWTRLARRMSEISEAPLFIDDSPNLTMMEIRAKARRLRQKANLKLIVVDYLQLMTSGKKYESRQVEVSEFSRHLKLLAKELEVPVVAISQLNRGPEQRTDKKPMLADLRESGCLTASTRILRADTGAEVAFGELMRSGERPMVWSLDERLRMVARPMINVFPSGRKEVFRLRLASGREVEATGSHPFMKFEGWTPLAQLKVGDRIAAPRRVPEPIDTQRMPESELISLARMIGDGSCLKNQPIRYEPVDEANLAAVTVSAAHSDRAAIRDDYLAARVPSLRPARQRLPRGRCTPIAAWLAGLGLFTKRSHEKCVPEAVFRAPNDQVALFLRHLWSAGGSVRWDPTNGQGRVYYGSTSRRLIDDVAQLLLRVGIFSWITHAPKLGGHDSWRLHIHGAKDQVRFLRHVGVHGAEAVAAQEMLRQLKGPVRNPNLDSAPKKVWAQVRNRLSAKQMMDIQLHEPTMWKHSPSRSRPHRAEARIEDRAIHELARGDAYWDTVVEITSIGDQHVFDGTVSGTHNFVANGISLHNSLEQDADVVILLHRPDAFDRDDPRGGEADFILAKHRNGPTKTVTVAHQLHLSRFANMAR
Description: DnaB intein splicing inhibitors, dose response, biochemical, cell-free fluorescence (AID 449749). It counts as functional.

For assay [13], the target named is T7, Tyrosine-protein phosphatase non-receptor type 7 (Homo sapiens, UniProt P35236).
T7 sequence (P35236 whole entry): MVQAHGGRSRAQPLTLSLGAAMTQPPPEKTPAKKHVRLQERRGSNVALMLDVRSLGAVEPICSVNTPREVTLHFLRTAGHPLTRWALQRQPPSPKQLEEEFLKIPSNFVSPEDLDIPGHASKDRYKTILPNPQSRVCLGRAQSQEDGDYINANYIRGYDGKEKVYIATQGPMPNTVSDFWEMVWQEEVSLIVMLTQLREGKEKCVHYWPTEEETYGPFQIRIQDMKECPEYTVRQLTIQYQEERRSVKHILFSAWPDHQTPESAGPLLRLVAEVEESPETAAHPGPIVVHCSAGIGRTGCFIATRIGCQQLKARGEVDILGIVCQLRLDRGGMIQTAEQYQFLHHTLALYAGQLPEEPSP
Description: HePTP tyrosine phosphatase activity blockers – biochemical, absorbance, leukemia target, primary screen (AID 521). It counts as functional.

The target in assay [14] is E3 ubiquitin-protein ligase Mdm2 (Homo sapiens, UniProt Q00987). Description: MDM2-luc reporter signal enhancers, multi-concentration potency testing, MDM2 ubiquitin-protein ligase inhibitor program, whole-cell format, luminescence detection, 384-well microplate (AID 1394).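 Also: MDM2 E3 inhibitors raise luminescence so EC50 is for signal enhancement.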 The format is functional.

SMILES strings stand for the structures. Calls of active or inactive are those of the source. Rule as the data show it, for most assays here: actives have a measured EC50 and inactives only a lower limit.

E3 ubiquitin-protein ligase Mdm2, sequence (Q00987 whole entry): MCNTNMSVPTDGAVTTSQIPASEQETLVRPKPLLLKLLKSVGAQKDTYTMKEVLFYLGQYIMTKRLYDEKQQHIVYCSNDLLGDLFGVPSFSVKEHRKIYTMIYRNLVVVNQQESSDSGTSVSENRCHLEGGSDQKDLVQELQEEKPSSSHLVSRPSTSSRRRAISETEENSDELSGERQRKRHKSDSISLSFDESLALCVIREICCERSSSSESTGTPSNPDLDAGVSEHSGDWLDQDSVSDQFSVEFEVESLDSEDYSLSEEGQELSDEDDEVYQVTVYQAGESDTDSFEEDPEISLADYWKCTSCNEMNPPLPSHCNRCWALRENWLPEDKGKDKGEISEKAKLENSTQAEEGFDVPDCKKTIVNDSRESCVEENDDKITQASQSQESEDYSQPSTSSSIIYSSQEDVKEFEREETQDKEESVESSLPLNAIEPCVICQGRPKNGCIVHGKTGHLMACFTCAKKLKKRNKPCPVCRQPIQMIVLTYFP
Glutathione-S-transferase, sequence (Q26513 whole entry): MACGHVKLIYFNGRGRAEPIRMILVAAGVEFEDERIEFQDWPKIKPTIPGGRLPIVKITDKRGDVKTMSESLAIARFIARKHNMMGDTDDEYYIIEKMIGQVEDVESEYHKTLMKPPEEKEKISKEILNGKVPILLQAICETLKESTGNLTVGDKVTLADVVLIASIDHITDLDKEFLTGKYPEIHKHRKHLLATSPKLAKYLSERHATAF
Protein Tat, sequence (P04608 whole entry): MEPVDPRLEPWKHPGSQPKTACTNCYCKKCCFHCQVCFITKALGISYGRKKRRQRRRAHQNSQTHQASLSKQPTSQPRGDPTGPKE
Genome polyprotein, sequence (P29990 2492-3391 limits assumed): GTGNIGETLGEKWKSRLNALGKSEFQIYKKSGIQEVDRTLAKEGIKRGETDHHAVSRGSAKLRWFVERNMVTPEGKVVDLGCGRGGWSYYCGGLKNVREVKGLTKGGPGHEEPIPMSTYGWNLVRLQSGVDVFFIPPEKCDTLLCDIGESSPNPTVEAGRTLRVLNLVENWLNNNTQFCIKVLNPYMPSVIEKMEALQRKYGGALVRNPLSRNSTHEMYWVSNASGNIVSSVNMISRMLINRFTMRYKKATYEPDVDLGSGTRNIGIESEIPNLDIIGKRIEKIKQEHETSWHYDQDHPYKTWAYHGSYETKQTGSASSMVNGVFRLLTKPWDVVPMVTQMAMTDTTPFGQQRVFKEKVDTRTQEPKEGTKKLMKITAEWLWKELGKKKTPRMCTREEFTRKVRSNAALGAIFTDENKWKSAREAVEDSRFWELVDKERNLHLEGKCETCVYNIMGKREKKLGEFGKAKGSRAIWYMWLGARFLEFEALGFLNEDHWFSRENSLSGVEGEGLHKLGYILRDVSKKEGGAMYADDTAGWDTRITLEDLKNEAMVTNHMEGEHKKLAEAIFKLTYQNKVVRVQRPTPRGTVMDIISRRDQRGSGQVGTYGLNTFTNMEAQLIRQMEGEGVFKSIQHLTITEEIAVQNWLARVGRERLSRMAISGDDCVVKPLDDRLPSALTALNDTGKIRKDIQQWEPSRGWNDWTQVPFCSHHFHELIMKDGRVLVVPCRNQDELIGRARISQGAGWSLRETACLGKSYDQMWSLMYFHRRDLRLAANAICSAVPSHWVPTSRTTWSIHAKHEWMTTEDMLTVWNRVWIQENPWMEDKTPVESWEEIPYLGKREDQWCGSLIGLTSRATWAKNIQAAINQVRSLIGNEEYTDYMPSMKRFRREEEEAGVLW

On to `O=C(NC(=S)N1CCN(c2c(Cl)cccc2[N+](=O)[O-])CC1)c1cccs1`, for which the EC50 in assay [1] is > 195 µM (not active); at Streptokinase A, > 150 µM (not active); in assay [2], 4.51 µM (active); in the assay with Streptococcus, 10.2 µM (active). In addition, the 50% cytotoxic concentration (CC50) in assay [3] is > 40 µM (active).

With `O=C1C=C(Nc2cccc3cccnc23)c2ccccc2C1=O`, the figures for the IC50 (at Genome polyprotein; in assay [4]; at Protein Tat) were 50.4 µM (active), > 100 µM (active) and > 100 µM (active), respectively. The EC50 in the assay with BJ [5] was 1.57 µM (inconclusive); in [6], 47.6 µM (active); in assay [7] it was 2.77 µM (inconclusive); at Protein RecA, 2.89 µM (active); in [9], 28.7 µM (active); with BJ [10] it was 3.05 µM (active). In addition, the half-maximal effective concentration (EC50) with BJ [11] is 6.37 µM (inconclusive). Also, the figures for the CC50 (in assay [8]; with Vero) were 0.34 µM (active) and 4.45 µM (active), respectively. In [12], the AC50 is > 380 µM (inactive).

Take `O=C(CCSCCC(=O)NCc1ccco1)NCc1ccco1`: in assay [13], the IC50 is 4.15 µM (active).

As for `Cc1nn(-c2nnc(NCc3ccccc3)nn2)c(C)c1Br`, the EC50 in assay [14] is listed as 13.3 µM (not active).
